Measurements reported in patent US20240189442A1, “TARGETING CONJUGATES WITH THERAPEUTIC AGENTS AND OLIGONUCLEOTIDES AND USES THEREOF” (Allygen Group, priority 2021, published 2024).
Non-standard residues stand in square brackets, D forms with d. Primed or numbered codes have the meaning given here. No end group written: not given here. PEG12′ = NH2-(PEG)12 moiety

Assays:
CathepsinB = CathepsinB (Homo sapiens, UniProt P07858); experiment: Digestion of the drug-linkers by CathepsinB; assay type: biochemical; conditions: 125 nM enzyme, 62.5 μM drug-linker, pH 5.5, 37° C., 3 hours
Description: To simulate the release of drug under physiological conditions, the drug-linkers were subjected to cleavage by CathepsinB, after which an elimination reaction occurred and unmodified drug was released.
Lyophilized CathepsinB enzyme powder was dissolved in 130 μL of pure water, and divided into 13 tubes of 10 μL each. At this time, the concentration of each tube was 0.15 mg/ml (4.15 μM). Activation buffer (20 mM sodium acetate, 30 mM DTT, 15 mM EDTA, pH 5.5) was then added to a tube of enzyme to activate the enzyme for 1 hour at room temperature. The activated enzyme was diluted to 125 nM with enzyme digestion buffer (25 mM sodium acetate, 1 mM EDTA, pH 5.5). Drug-linkers were added to the activated enzyme to a final concentration of 62.5 μM, and incubated at 37° C. for 3 hours.

[1] = Stability of Compound of Formula (1) and (2) in buffer; assay type: physicochemical
Description: Preparation of 20 mM phosphate buffer with pH=7.4 (in 1 L): 8.0 g sodium chloride, 0.2 g potassium chloride, 7.3 g disodium hydrogen phosphate dodecahydrate, and 0.48 g potassium dihydrogen phosphate was dissolved in water and dilute to 1 L at pH 7.4.
The buffer was adjusted to pH 9.0, 7.0 and 5.0 with saturated phosphoric acid solution and sodium hydroxide solution. […] The solution pH was adjusted back to 5, and shaken overnight at room temperature (16 h) before testing.

[2] = Stability of Compound of Formula (1) and (2) in plasma; assay type: in vitro ADME; conditions: pH 7.4, 0.5 mg/mL
Description: Preparation of protein precipitation solution: 1 g NaCl was added to 3 mL methanol and 5 mL acetonitrile, stirred for 1 h, and then allowed to stand at room temperature for 1 h before use.
200 μL protein precipitation solution was then added to the reaction solution and centrifuged at 8000 g for 10 min. The supernatant was collected for analysis.

HCT15-hPDL1 cells = experiment: In vitro cytotoxicity study, CellTiter-Glo Luminescent Cell Viability Assay; assay type: cell-based, Human; conditions: 5 days exposure
Description: The cell line was named as HCT15-hPDL1. Cells were cultured at 37° C. with 5% C02 using RPMI1640 medium supplemented with 10% FBS, plus 1 μg/ml of puromycin.
The in vitro anti-tumor activity was determined by CellTiter-Glo® Luminescent Cell Viability Assay (Promega) according to the manufacturer's instructions. Briefly, cells were seeded into 96-well plates at 2×10^3 cells per well in 100 μL complete medium, then incubated at 37° C. with 5% CO2 overnight. Untreated cells served as control. ADCs, antibodies, or payloads in 100 μL medium were added in duplicate at various concentrations with a 2-fold dilution series starting with concentrations of 1 uM, respectively. Cells were exposed to test articles for 5 days. […]. The cell survival rate (%) was calculated using the following formula: sample/control×100%.

[3] = Stability of SN-38 (lactone / ring-opened form) at different pH; assay type: physicochemical
Description: A hydrochloric acid solution with a pH of 4 and a sodium hydroxide solution with a pH of 10 were prepared respectively. 5 mg of SN-38 was dissolved in 5 mL of acetonitrile. The stability of SN-38 in a solution of changing pH (pH=10 to pH=4) was measured by shaking SN-38 at room temperature under pH=10 for 10 min, then adjusting the pH back to 4 and shake at room temperature for 10 min before sampling. SN-38 was then incubated at room temperature overnight (16 h) on a shaker and assayed afterwards.

[4] = molecular target: T1, TLR9 (HEK-Blue hTLR9-hPDL1 cells) (Homo sapiens, UniProt Q9NR96); experiment: In vitro TLR9 activation study, SEAP reporter; assay type: cell-based; conditions: 18 hr incubation, OD 655 nm; read-out: HEK-Blue hTLR9-hPDL1 cell EC50
T1 construct: expressed in transfected cells; host or cells: HEK-Blue hTLR9-hPDL1 (HEK-Blue hTLR9 cells carrying lentiviral human PD-L1, NM_014143)
T1 sequence (Q9NR96 26-1032): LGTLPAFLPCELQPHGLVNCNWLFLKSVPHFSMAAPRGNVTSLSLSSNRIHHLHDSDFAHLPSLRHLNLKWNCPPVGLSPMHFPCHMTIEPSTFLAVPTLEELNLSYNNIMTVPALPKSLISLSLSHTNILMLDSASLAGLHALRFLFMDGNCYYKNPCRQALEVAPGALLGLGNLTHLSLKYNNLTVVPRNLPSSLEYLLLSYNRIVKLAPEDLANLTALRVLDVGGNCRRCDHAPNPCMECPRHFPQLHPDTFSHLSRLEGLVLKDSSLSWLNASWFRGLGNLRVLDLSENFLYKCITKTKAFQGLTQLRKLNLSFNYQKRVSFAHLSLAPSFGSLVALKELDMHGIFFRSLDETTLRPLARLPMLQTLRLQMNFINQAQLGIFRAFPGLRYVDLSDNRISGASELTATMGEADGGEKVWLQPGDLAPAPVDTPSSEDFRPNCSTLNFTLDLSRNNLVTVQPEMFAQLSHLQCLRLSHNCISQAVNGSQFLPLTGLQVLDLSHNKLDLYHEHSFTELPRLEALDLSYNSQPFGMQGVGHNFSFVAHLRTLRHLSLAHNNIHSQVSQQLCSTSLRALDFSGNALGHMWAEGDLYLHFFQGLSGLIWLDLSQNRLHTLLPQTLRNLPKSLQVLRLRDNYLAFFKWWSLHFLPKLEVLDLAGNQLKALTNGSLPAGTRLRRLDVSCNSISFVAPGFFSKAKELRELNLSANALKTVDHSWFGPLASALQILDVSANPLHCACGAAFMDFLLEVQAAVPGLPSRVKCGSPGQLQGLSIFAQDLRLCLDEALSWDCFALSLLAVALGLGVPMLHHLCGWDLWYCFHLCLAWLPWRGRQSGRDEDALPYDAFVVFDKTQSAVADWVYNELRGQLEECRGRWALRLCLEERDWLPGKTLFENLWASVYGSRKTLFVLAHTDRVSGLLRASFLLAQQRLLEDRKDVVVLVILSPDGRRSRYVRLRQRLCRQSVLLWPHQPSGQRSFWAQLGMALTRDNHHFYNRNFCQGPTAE
Text: Data were normalized with untreated cells as zero.

[5] = molecular target: Urokinase-type Plasminogen Activator (uPA) (Homo sapiens, UniProt P00749); experiment: uPA cleavage of substrate peptides measured by FRET; assay type: biochemical; conditions: uPA 7.5 × 10^−3 mg/mL, peptide 0.5 mg/mL, PBS pH=7.4
Description: (§1) All peptide solutions were finally diluted to 50 μL with 20 mM PBS at pH=7.4.

[6] = molecular target: Tissue-type Plasminogen Activator (tPA) (Homo sapiens, UniProt P00750); experiment: tPA digestion of substrate peptides measured by FRET; assay type: biochemical
Tissue-type Plasminogen Activator (tPA), sequence (P00750 36-562, species assumed): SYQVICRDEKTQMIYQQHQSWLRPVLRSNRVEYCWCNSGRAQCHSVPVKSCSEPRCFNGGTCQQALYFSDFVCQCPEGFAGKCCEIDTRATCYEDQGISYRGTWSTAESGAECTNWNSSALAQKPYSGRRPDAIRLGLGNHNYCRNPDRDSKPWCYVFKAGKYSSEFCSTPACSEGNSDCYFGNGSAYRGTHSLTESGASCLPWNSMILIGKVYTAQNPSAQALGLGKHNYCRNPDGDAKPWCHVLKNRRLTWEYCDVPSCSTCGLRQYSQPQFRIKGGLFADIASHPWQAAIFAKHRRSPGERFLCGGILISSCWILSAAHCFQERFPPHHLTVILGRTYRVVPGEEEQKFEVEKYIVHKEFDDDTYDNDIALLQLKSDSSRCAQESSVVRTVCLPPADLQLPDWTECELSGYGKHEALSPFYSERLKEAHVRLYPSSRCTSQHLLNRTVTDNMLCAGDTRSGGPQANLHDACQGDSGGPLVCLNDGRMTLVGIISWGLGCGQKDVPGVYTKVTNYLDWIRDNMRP
Description: as §1

antibody Ab2B = experiment: Biacore affinities between TBP and antibody; assay type: binding
antibody Ab2B, sequence (as listed by the source): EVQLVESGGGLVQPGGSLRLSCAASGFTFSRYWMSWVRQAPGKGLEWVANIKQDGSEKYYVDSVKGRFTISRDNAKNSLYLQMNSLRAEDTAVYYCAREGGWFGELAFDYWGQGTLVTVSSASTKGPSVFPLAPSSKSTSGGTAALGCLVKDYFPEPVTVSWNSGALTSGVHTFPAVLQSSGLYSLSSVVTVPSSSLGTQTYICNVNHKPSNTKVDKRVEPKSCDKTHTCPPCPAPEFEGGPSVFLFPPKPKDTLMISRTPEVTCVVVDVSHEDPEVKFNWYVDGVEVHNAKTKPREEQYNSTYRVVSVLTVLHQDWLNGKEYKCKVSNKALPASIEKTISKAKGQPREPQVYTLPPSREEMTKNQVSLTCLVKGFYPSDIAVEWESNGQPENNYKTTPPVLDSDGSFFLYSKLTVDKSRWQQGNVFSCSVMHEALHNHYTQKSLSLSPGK
antibody Ab2B, sequence (as listed by the source partner): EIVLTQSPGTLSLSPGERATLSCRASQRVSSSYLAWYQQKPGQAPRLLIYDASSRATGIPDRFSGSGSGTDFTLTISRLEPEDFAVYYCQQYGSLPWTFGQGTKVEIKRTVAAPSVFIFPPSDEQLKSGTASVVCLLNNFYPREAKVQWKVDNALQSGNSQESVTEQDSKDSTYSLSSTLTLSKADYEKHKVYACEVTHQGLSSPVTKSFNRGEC
Description: Anti-human Fab was ligated to Biacore chips at pH 4.5. […] TBPs were flowed through the chip as analytes at 30 μL/min. 10 mM glycine at pH 1.5 was used for regeneration of the chip. Conditions were optimized as needed.

[7] = alkaline conditions for 10 minutes, then acidic conditions before testing
[8] = pH 10 to pH 4, after incubation overnight (16 h)

In the case of `CCc1c2c(nc3ccc(O)cc13)-c1cc3c(c(=O)n1C2)COC(=O)[C@@]3(CC)OC(=O)N(C)CCN(C)C(=O)OCc1ccc(NC(=O)[C@H](CCCNC(N)=O)NC(=O)[C@@H](NC(=O)CCOCCOCCOCCOCCOCCOCCOCCOCCCNC(=O)CNC(=O)CNC(=O)CN)C(C)C)cc1` [Compound of Formula (2), Glycine3-amido-PEG8-VC-PAB-DMAE-α-hydroxy lactone linked SN38], the “CathepsinB digestion (in words)” value (CathepsinB) is reported as “effectively digested”, the “Product released on CathepsinB digestion” value (CathepsinB) is reported as “release SN38 derivatives” and the “Present in the form of lactones in buffer” value ([1]; buffer, less affected by pH) is reported as 98%. For the same compound, the “Stability in plasma (in words)” value [2] was “mainly in the form of lactones in the plasma” and the IC50 (HCT15-hPDL1 cells; Homo sapiens, 120 h) was 38.1 nM.

In the case of `CCc1c2c(nc3ccc(O)cc13)-c1cc3c(c(=O)n1C2)COC(=O)[C@]3(O)CC` [SN38, 7-ethyl-10-hydroxy-20(S)-camptothecin], the Present as lactone ([3]; acidic conditions (pH 4)) is reported as 94%, the “Present as lactone ring-opened form” value ([3]; alkaline conditions (pH 10)) is reported as 92% and the Lactone ring-opening products [3, 7] is reported as 42%. The “Present in the form of lactone” value [3, 7] was 56%, the Lactone ring-opening products [3, 8] was 13% and the “Present in the form of lactone” value [3, 8] was 86%. For the same compound, the IC50 (HCT15-hPDL1 cells; Homo sapiens, 120 h) was 11.2 nM.

Compound “CpGB: CpG ODN CpGB, used as positive control and as component of Ab3A ADOC (DNA TCGAACGTTCGAACGTTCGAACGTTCGAAT; DNA, all phosphorothioate, methylation of C not given here)” has an EC50 [4] of 11500 nM.

With “GSGRNAQV [SEQ ID NO: 54, uPA substrate peptide]” the “Fluorescence Intensity Time to Reach Plateau” value (“Fluorescence Intensity Time” for short) [5] was 1.4 h and the “tPA digestion (in words)” value ([6]; tPA […]10^−2 mg/mL) was “digested”.

In the case of “Glycine3-amido-PEG8-VC-PAB-DMAE-phenol linked SN38 [Compound of Formula (1)]”, the “CathepsinB digestion (in words)” value (CathepsinB) is reported as “effectively digested”, the “Product released on CathepsinB digestion” value (CathepsinB) is reported as “release SN38” and the “Present in the form of lactones” value ([1]; acidic conditions (pH 5 buffer)) is reported as 88%. The “Present as lactones in the form of ring opening” value ([1]; alkaline conditions (pH 9 buffer)) was 92%, the “Present in the form of lactones” value ([1]; alkaline conditions for 10 minutes, then acidic conditions (pH 9 to 5)) was 98% and the “Stability in plasma (in words)” value [2] was “partially hydrolyzed in plasma”. The IC50 (HCT15-hPDL1 cells) was greater than 300 nM.

For “LGGSGRNAQVRLE [SEQ ID NO: 53, uPA substrate peptide]”, the “Fluorescence Intensity Time” value [5] was 1.6 h.

With “LGGSGRSANAILE [SEQ ID NO: 52, uPA substrate peptide]” the “Fluorescence Intensity Time” value [5] was 1.4 h, the “tPA digestion (in words)” value ([6]; tPA 7.5×10^−3 mg/mL) was “mildly digested” and the “tPA digestion (in words)” value ([6]; tPA […]10^−2 mg/mL) was “digested”.

In the case of LSGRSDNH [SEQ ID NO: 50], the “Fluorescence Intensity Time” value [5] is reported as 1.7 h.

For “SEQ ID NO: 151 ([PEG12′]RSQSRSRYYRQRQRSRRRRRRS)”, the “Binding to Ab2B (in words)” value (antibody Ab2B) was “did not bind to Ab2B”.

With SGRSA [SEQ ID NO: 51] the “Fluorescence Intensity Time” value [5] was 1.8 h, the “tPA digestion (in words)” value ([6]; tPA 7.5×10^−3 mg/mL) was “mildly digested” and the “tPA digestion (in words)” value ([6]; tPA […]10^−2 mg/mL) was “digested”.
